Consider five compounds from patent publication US20230346808A1, “CANNABINOID FORMULATIONS AND METHODS OF USE” (PreveCeutical Medical Inc., priority 2020, published 2023).

The subject of data set [1] is explanted nasal mucosal tissue. Description: Ex vivo deposition into nasal mucosa, vertical Franz-diffusion apparatus. The format is in vitro ADME, human. The note with it: for Deposition of key cannabinoids in µg/g of nasal tissue, Decarboxylated (average of batches D19 & D23): 300 µL decarboxylated sol-gel; for Deposition of key cannabinoids in µg/g of nasal tissue, Decarboxylated (average of batches D19 & D23) / Deposition of key cannabinoids in µg/g of nasal tissue, Native (average of batches N22 & 23): 8 hours post-application, 34° C.; for Deposition of key cannabinoids in µg/g of nasal tissue, Native (average of batches N22 & 23): 300 µL native sol-gel. How it is done: Ex vivo permeation studies were carried out using vertical Franz-diffusion apparatus equipped with temperature-controlled jackets set at 34° C. ± 1° C. Nasal mucosa was taken from middle-turbinate of patients undertaking surgery at Greenslopes Private Hospital. Mucosal tissue was cleaned of blood and bone, then immersed in phosphate-buffered saline (PBS; pH 7.4) at room temperature. The prepared nasal membrane was then sandwiched between donor and receptor cells with the dorsal side of the tissue facing the donor compartment and the ventral side facing the receiver compartment. The receptor cells were filled with 12 mL of PBS and then 300 µL of native or decarboxylated sol-gel samples placed in the donor compartment, ensuring that formulations spread over the entire tissue. To prevent evaporation of the samples, donor cells were covered with Parafilm®. Samples from the receptor cell were taken and volume replaced with PBS at 0, 1, 2, 4, 6 and 8-hours following sol-gel application. Collected tissue samples were then rinsed with MilliQ water after 8 hours, blotted dry with filter paper, wrapped with aluminium foil to protect from light and stored at -80° C. until required for further analysis.
On the day of analysis, the tissue samples were allowed to thaw and were blotted dry using filter paper, cut into small pieces, frozen with liquid nitrogen and ground with a mortar and pestle. Cannabis was extracted from the powdered tissue with ethanol (1 mL) and gently agitated for 12 hours at room temperature. Samples were then transferred to Eppendorf tubes and centrifuged at 10000 rpm for 10 minutes. The supernatant was collected and 100 µL of acetonitrile added to each tube then supernatant collected and again 100 µL was added and stored at -20° C. overnight. The following day each sample was allowed to thaw and centrifuged at 10000 rpm for 10 minutes with supernatant collected and prepared for quantitative analysis using the HPLC method described above in Example 5. Samples of Cannabis sol-gels from native (N22 and N23) and decarboxylated (D19 and D23) extracts were used in this study.
The tissue deposition of cannabinoids was measured per gram of nasal mucosa, with studies based on tissue availability from patients undergoing sinus surgery, and key cannabinoids detected presented in Table 8. The data shown is an average of the 2 native or 2 decarboxylated batches. The amount of sol-gel administered (300 µL) accounts for 3000 µg of cannabinoid content which is a surplus amount (based on micelles, this approximately correlates to the following: for native sol-gels maximum of […] CBDA, 1200 µg THCA; for decarboxylated sol-gels maximum of 960 µg CBDA, 45 µg THCA).

Data set [2] relates to human nasal mucosa. To be noted: tissue from end of the 5 day study.
Description: Untreated tissue samples and post-treated tissue samples from the end of the study were preserved from each well for histological evaluation. Each sample was fixed using 4% formaldehyde and stored at 4° C. overnight. On the following day, tissues were dipped in 20% sucrose overnight and embedded in OCT, frozen at -20° C. and cryo-sectioned into slices. Staining was performed with hematoxylin and eosin for 1 minute and stained samples dehydrated in ethanol, defatted in xylene and cover-slipped for histological examination.
Tissues were examined for morphological changes.
Data set [3] relates to human nasal mucosa. To be noted: 2 µL applied, media harvested daily for five days, n = 3.
Description: Lactate dehydrogenase (LDH) is an oxidoreductase enzyme found in living cells that is released into the cytoplasm upon cell lysis that is under stressor conditions. LDH is detected via a colourimetric cytotoxicity assay that provides a measure of membrane integrity, with high titres of LDH being an indicator of acute cellular damage/toxicity (Lim et al, International Forum of Allergy & Rhinology, 2012, 2(1): p 63-68). […] Acute toxicity was assessed in freshly explanted human nasal tissue.
Human specimens were dissected, connective tissue, debris or blood were removed utilising a 15 blade scalpel and divided into 2-3 mm x 2-3 mm x 1-2 mm sections. […]
LDH was used as the biomarker and analysed using the CytoTox 96® Non-Radioactive cytotoxicity assay kit following manufacturer instructions (Promega, Madison WI). […] After the end of the study, the absorbance of each sample was obtained at 490 nm using FLUOstar Omega Spectrophotometer (BMG Labtech, Offenburg, Germany). The extracellular LDH level was calculated as changes in the LDH levels of tissues treated with a formulation versus tissues treated with PBS. Statistical differences were analysed by one-way ANOVA followed by Dunnet’s multiple comparison test using GraphPad Prism software (v 7.03).

Where “and” joins values, the source holds several entries; their conditions need not be identical. Identical values can stand only once.

As to `C=C(C)[C@@H]1CCC(C)=C[C@H]1c1c(O)cc(CCCCC)cc1O` [CBD, cannabidiol], in data set [1], the “Deposition of key cannabinoids in µg/g of nasal tissue, Decarboxylated (average of batches D19 & D23)” value (shortened to “Deposition … (average of batches D19 & D23)”) is 3.56 µg/g and 3.56 ± 1.67 µg/g; the “Deposition of key cannabinoids in µg/g of nasal tissue, Native (average of batches N22 & 23)” value (from here on “Deposition … (average of batches N22 & 23)”) is 3.47 µg/g and 3.47 ± 1.53 µg/g.
As for `O=S(=O)([O-])[O-].[Zn+2]` [ZnSO4, Zinc sulfate], the “Morphological changes of epithelial and sub epithelial layers of nasal mucosa” value in the data set with human nasal mucosa [2] is “gross cell and tissue structural damage”. Besides, the “Extracellular LDH levels versus PBS negative control” value with human nasal mucosa [3] is given as “significant elevation in LDH levels at day 2”.
Consider `CCCCCc1cc2c(c(O)c1C(=O)O)C1C=C(C)CCC1C(C)(C)O2` (centres unmarked) [THCA, Δ^9-Tetrahydrocannabinolic acid], for which, in data set [1], the “Deposition … (average of batches D19 & D23)” value was 11.3 µg/g and 11.3 ± 10.2 µg/g; the “Deposition … (average of batches N22 & 23)” value was 5.73 µg/g and 5.73 ± 0.51 µg/g.
Consider `CCCCCc1cc(O)c2c(c1)OC(C)(C)[C@@H]1CCC(C)=C[C@@H]21` [THC, delta-9-tetrahydrocannabinol], for which, in data set [1], the “Deposition … (average of batches D19 & D23)” value is 4.19 µg/g and 4.19 ± 2.20 µg/g; the “Deposition … (average of batches N22 & 23)” value is 3.54 µg/g and 3.54 ± 1.74 µg/g.
As to `C=C(C)[C@@H]1CCC(C)=C[C@H]1c1c(O)cc(CCCCC)c(C(=O)O)c1O` [CBDA, Cannabidiolic acid], in data set [1], the “Deposition … (average of batches D19 & D23)” value is 10.9 µg/g and 10.9 ± 1.81 µg/g; the “Deposition … (average of batches N22 & 23)” value is 3.14 µg/g and 3.14 ± 2.98 µg/g. For the same compound, in data set [1] (decarboxylated versus native extract infused sol-gels), the “Higher tissue level from decarboxylated versus native sol-gels” value is “ca. 3 fold”.
